Data from US20240025862A1, “SUBSTITUTED N-PHENYLURACILS AND SALTS THEREOF, AND USE THEREOF AS HERBICIDAL ACTIVE SUBSTANCES” (Bayer Aktiengesellschaft, priority 2020, published 2024).

What was measured:
Type in all cases: in vivo
[1] = system: Abutilon theophrasti (ABUTH); assay: Post-emergence herbicidal action, greenhouse pot test; conditions: Abutilon theophrasti, 504 h, rated visually after about 3 weeks vs untreated controls, 100% = plants have died
Summary of the method: (§1)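 Activity was scored by eye about 3 weeks after treatment against untreated plants, where 100% means dead plants and 0% means no difference. Plants at the one-leaf stage received a foliar spray of WP or EC formulations in water plus 0.5% additive (600 l/ha, up to 20 g/ha). Plants were grown in sandy loam pots in a greenhouse for 2–3 weeks before spraying.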

[2] = system: Amaranthus retroflexus (AMARE); assay: as above; conditions: Amaranthus retroflexus, 504 h, rated visually after about 3 weeks vs untreated controls, 100% = plants have died
Summary of the method: as §1

Avena fatua (AVEFA) = assay: as above; conditions: Avena fatua, 504 h, 20 g/ha, rated visually after about 3 weeks vs untreated controls, 100% = plants have died, read-out: Post-emergence action at 20 g/ha against AVEFA in %
Summary of the method: as §1

Lolium rigidum (LOLRI) = assay: as above; conditions: Lolium rigidum, 504 h, dosage 20 g/ha, read-out: Post-emergence action against LOLRI in %
Summary of the method: as §1

[3] = system: Pharbitis purpurea (PHBPU); assay: as above; conditions: Ipomoea purpurea, 504 h, read-out: Post-emergence action against PHBPU in %
Summary of the method: as §1

[4] = system: Polygonum convolvulus (POLCO); assay: as above; conditions: Fallopia convolvulus, 504 h, read-out: Post-emergence action against POLCO in %
Summary of the method: as §1

Veronica persica (VERPE) = assay: as above; conditions: Veronica persica, 504 h, read-out: Post-emergence action against VERPE
Summary of the method: as §1

Viola tricolor (VIOTR) = assay: as above; conditions: Viola tricolor, 504 h, read-out: Post-emergence action against VIOTR
Summary of the method: as §1

[5] = system: Alopecurus myosuroides (ALOMY); assay: Post-emergence herbicidal action, greenhouse pot test (also comparative test C)
Summary of the method: (§2)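 Green parts of one-leaf-stage plants are sprayed at 600 l/ha with formulated compound plus 0.5% additive, then kept under optimum greenhouse conditions for about 3 weeks. Damage is scored visually, where 100% means dead plants and 0% means no difference from controls.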

[6] = system: Echinochloa crus-galli (ECHCG); assay: as above
Summary of the method: as §2

[7] = system: Matricaria inodora (MATIN); assay: as above
Summary of the method: as §2

Setaria viridis (SETVI) = assay: as above
Summary of the method: as §2

Brassica napus (BRSNW) = assay: Post-emergence crop plant compatibility, greenhouse pot test; conditions: 1.25 g/ha, vs untreated controls
Summary of the method: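 Greenhouse pot test; post-emergence foliar spray at one-leaf stage, WP or EC in water + 0.5% additive, 600 l/ha. Visual rating after ~3 wk, % relative to untreated (0–100%).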

Zea mays (ZEAMX) = assay: Pre-emergence crop plant compatibility, greenhouse pot test; conditions: 20 g/ha
Excerpt: Seeds of monocotyledonous and dicotyledonous weed plants and crop plants were placed in plastic or organic planting pots and covered with soil. The compounds of the invention, formulated in the form of wettable powders (WP) or as emulsion concentrates (EC), were then applied to the surface of the covering soil as aqueous suspension or emulsion with addition of 0.5% additive at a water application rate equivalent to 600 l/ha (converted). After the treatment, the pots were placed in a greenhouse and kept under good growth conditions for the test plants. After about 3 weeks, the effect of the preparations was scored visually in comparison with untreated controls as percentages. For example, 100% activity=the plants have died, 0% activity=like control plants.
The observed effects on selected crop plants are reported here in comparison to the untreated controls (values in %).

[8] = application rate of 5 g or less per hectare, tables C1 to C4
[9] = comparative test C, application rate 1.25 g/ha

## COCCOC(=O)COc1ccccc1Oc1cc(-n2c(=O)cc(C(F)(F)F)n(C)c2=O)c(F)cc1Cl [I.7-1, 2-Methoxyethyl (2-{2-chloro-4-fluoro-5-[3-methyl-2,6-dioxo-4-(trifluoromethyl)-3,6-dihydropyrimidin-1(2H)-yl]phenoxy}phenoxy)acetate]
[1]; 5 g/ha, read-out: Post-emergence action at 5 g/ha against ABUTH in %
  pest or weed control at 5 g/ha: 100%
[1]; 20 g/ha, read-out: Post-emergence action at 20 g/ha against ABUTH in %
  pest or weed control at 20 g/ha: 100%
[2]; 1.25 g/ha, read-out: Post-emergence action at 1.25 g/ha against AMARE in %
  pest or weed control at 1.25 g/ha: 100%
[2]; 5 g/ha, read-out: Post-emergence action at 5 g/ha against AMARE in %
  pest or weed control at 5 g/ha: 100%
[2]; 20 g/ha, read-out: Post-emergence action at 20 g/ha against AMARE in %
  pest or weed control at 20 g/ha: 100%
Avena fatua (AVEFA)
  pest or weed control at 20 g/ha: 80%
Lolium rigidum (LOLRI)
  pest or weed control at 20 g/ha: 80%
[3]; dosage 1.25 g/ha
  pest or weed control at 1.25 g/ha: 100%
[3]; dosage 5 g/ha
  pest or weed control at 5 g/ha: 100%
[3]; dosage 20 g/ha
  pest or weed control at 20 g/ha: 100%
[4]; dosage 5 g/ha
  pest or weed control at 5 g/ha: 80%
[4]; dosage 20 g/ha
  pest or weed control at 20 g/ha: 100%
Veronica persica (VERPE); 1.25 g/ha
  pest or weed control at 1.25 g/ha: 100%
Veronica persica (VERPE); 5 g/ha
  pest or weed control at 5 g/ha: 100%
Veronica persica (VERPE); 20 g/ha
  pest or weed control at 20 g/ha: 100%
Viola tricolor (VIOTR); 1.25 g/ha
  pest or weed control at 1.25 g/ha: 100%
Viola tricolor (VIOTR); 5 g/ha
  pest or weed control at 5 g/ha: 100%
Viola tricolor (VIOTR); 20 g/ha
  pest or weed control at 20 g/ha: 100%
[5]; Alopecurus myosuroides, 504 h, 5 g/ha, rated visually after about 3 weeks vs untreated controls, 100% = plants have died, read-out: Post-emergence action at 5 g/ha against ALOMY in %
  pest or weed control at 5 g/ha: 80%
[5]; Alopecurus myosuroides, 504 h, 20 g/ha, rated visually after about 3 weeks vs untreated controls, 100% = plants have died, read-out: Post-emergence action at 20 g/ha against ALOMY in %
  pest or weed control at 20 g/ha: 100%
[5]; [8]
  herbicidal efficacy against ALOMY by comparison with literature compound a-17 / 3-14: distinct improvement in herbicidal efficacy
[6]; 1.25 g/ha, rated visually after about 3 weeks vs untreated controls, 100% = plants have died
  Post-emergence action at 1.25 g/ha against ECHCG in %: 90%
[6]; Echinochloa crus-galli, 504 h, dosage 5 g/ha, read-out: Post-emergence action against ECHCG in %
  pest or weed control at 5 g/ha: 100%
[6]; Echinochloa crus-galli, 504 h, dosage 20 g/ha, read-out: Post-emergence action against ECHCG in %
  pest or weed control at 20 g/ha: 90%
[6]; [8]
  herbicidal efficacy against ECHCG by comparison with literature compound a-17 / 3-14: distinct improvement in herbicidal efficacy
[6]; [9]
  ECHCG (efficacy in %): 90%
[7]; Tripleurospermum inodorum, 504 h, dosage 1.25 g/ha, read-out: Post-emergence action against MATIN in %
  pest or weed control at 1.25 g/ha: 100%
[7]; Tripleurospermum inodorum, 504 h, dosage 5 g/ha, read-out: Post-emergence action against MATIN in %
  pest or weed control at 5 g/ha: 100%
[7]; Tripleurospermum inodorum, 504 h, dosage 20 g/ha, read-out: Post-emergence action against MATIN in %
  pest or weed control at 20 g/ha: 100%
[7]; [8]
  herbicidal efficacy against MATIN by comparison with literature compound a-17 / 3-14: distinct improvement in herbicidal efficacy
[7]; [9]
  MATIN (efficacy in %): 100%
Setaria viridis (SETVI); Setaria viridis, 504 h, 20 g/ha, read-out: Post-emergence action against SETVI
  pest or weed control at 20 g/ha: 100%
Setaria viridis (SETVI); Setaria viridis, 504 h, dosage 1.25 g/ha, read-out: Post-emergence action against SETVI in %
  pest or weed control at 1.25 g/ha: 100%
Setaria viridis (SETVI); Setaria viridis, 504 h, dosage 5 g/ha, read-out: Post-emergence action against SETVI in %
  pest or weed control at 5 g/ha: 100%
Setaria viridis (SETVI); [8]
  herbicidal efficacy against SETVI by comparison with literature compound a-17 / 3-14: distinct improvement in herbicidal efficacy
Setaria viridis (SETVI); [9]
  SETVI (efficacy in %): 100%
Brassica napus (BRSNW)
  Post-emergence action against BRSNW (crop plant compatibility): 20%
Zea mays (ZEAMX)
  Pre-emergence action against ZEAMX in %: 0%
